Results reported in patent publication US5055476A, “3-(1,2-benzisoxazol-3-yl)-4-pyridinamines and derivatives” (Hoechst-Roussel Pharmaceuticals Incorporated, priority 1990, dated 1991).

Assays:
[1] = tested on: Scopolamine Induced Memory Deficit; assay: Dark Avoidance Assay (reversal of scopolamine induced memory deficit); format: in vivo; details: mice
Method: In this assay, mice are tested for their ability to remember an unpleasant stimulus for a period of 24 hours. A mouse is placed in a chamber that contains a dark compartment; a strong incandescent light drives it to the dark compartment, where an electric shock is administered through metal plates on the floor. The animal is removed from the testing apparatus and tested again, 24 hours later, for the ability to remember the electric shock.

[2] = tested on: phenyl-para-quinone writhing; assay: phenyl-para-quinone writhing assay in mice (analgesia); format: in vivo
From the text: The compounds of the present invention are useful as analgesic agents. […] Exptl. Biol. Med., 95, 729 (1957)].

[3] = tested on: ear edema induced by topical application of TPA; assay: TPA-Induced Ear Edema (TPAEE); format: in vivo, Female Swiss Webster mice; details: for TPAEE (change in TPA-induced ear edema): 10 μg/ear topical, TPA 10 μg/ear, five hours
Method: The purpose of this assay was to determine the ability of a topically-applied compound to prevent ear edema induced by topical application of TPA (phorbol 12-myristate acetate). Female Swiss Webster mice topically received TPA (10 μg/ear) on the right ear and vehicle on the left ear. The test compound (10 μg/ear) was applied to both ears. After five hours, the animals were sacrificed and an ear punch (4 mm) was taken from each ear. The difference in right and left ear punch weights for each animal was determined to assess activity. […] See Young, J. M. et al., J. Invest. Dermatol., 80 (1983), pp. 48-52.

Nc1ccncc1-c1noc2ccccc12.O=C(O)/C=C\C(=O)O [3-(1,2-Benzisoxazol-3-yl)-4-pyridinamine maleate]
% of Animals with Scopolamine Induced Memory Deficit Reversal ([1]; 1.0 mg/kg s.c., 24 hours): 21% | % of Animals with Scopolamine Induced Memory Deficit Reversal ([1]; 10.0 mg/kg s.c., 24 hours): 33% | % Inhibition of Writhing ([2]; 20 mg/kg of body wt. s.c., mice): 40% | TPAEE (change in TPA-induced ear edema) [3]: -29%

CC(C)(C)C(=O)Nc1ccncc1-c1noc2ccccc12 [N-[3-(1,2-Benzisoxazol-3-yl)-4-pyridinyl]-2,2-dimethylpropanamide]
% of Animals with Scopolamine Induced Memory Deficit Reversal ([1]; 3.0 mg/kg s.c., 24 hours): 20% | TPAEE (change in TPA-induced ear edema) [3]: -23%

CNC(=O)Oc1ccc2c(c1)[C@]1(C)CCN(C)[C@@H]1N2C [Physostigmine, reference compound]
% of Animals with Scopolamine Induced Memory Deficit Reversal ([1]; 0.31 mg/kg s.c., 24 hours (reference)): 20%

CCC(=O)O[C@](Cc1ccccc1)(c1ccccc1)[C@H](C)CN(C)C [Propoxyphene, reference compound]
% Inhibition of Writhing ([2]; 3.9 mg/kg of body wt. s.c., mice (standard)): 50%

C[C@]12CCC(=O)C=C1CC[C@@H]1[C@@H]2[C@@H](O)C[C@@]2(C)[C@H]1CC[C@]2(O)C(=O)CO [hydrocortisone, reference compound]
ED50 (TPA-induced ear edema) ([3]; standard, topical, mice): 47 μg/ear
